Legend:
[1] = tested on: BT-474 Tam1; assay: drug sensitivity score (DSS) (DSS (dimensionless)); higher = more sensitive; extreme values may be limits of the assay; details: 4-OH-tamoxifen in medium 1 µM; 72 h
Procedure: (§1)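 FIMM FO2B library drugs were tested at 5 concentrations (10,000-fold range) for 72 h, with CellTiter-Glo viability normalised to DMSO and benzethonium chloride controls. The Drug Sensitivity Score (DSS) is computed from the fitted logistic dose-response curve (area-based; 0 = inactive). Resistant lines and the 'in 1µM tamoxifen' arms were tested in 1 µM 4-OH-tamoxifen.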

[2] = tested on: BT-474 Tam2; assay: as above; details: 4-OH-tamoxifen in medium 1 µM; 72 h
Procedure: as §1

[3] = tested on: BT-474; assay: as above; details: 72 h
Procedure: as §1

[4] = tested on: MCF-7 Tam1; assay: as above; details: 4-OH-tamoxifen in medium 1 µM; 72 h
Procedure: as §1

[5] = tested on: MCF-7; assay: as above; details: 72 h
Procedure: as §1

[6] = tested on: T-47D Tam1; assay: as above; details: 4-OH-tamoxifen in medium 1 µM; 72 h
Procedure: as §1

[7] = tested on: T-47D Tam2; assay: as above; details: 4-OH-tamoxifen in medium 1 µM; 72 h
Procedure: as §1

[8] = tested on: T-47D; assay: as above; details: 72 h
Procedure: as §1

[9] = tested on: ZR-75-1 Tam1; assay: as above; details: 4-OH-tamoxifen in medium 1 µM; 72 h
Procedure: as §1

[10] = tested on: ZR-75-1 Tam2; assay: as above; details: 4-OH-tamoxifen in medium 1 µM; 72 h
Procedure: as §1

[11] = tested on: ZR-75-1; assay: as above; details: 72 h
Procedure: as §1

[12] = tested on: BT-474 Tam1; assay: relative IC50 (midpoint of fitted logistic curve, plateau may be below 50% inhibition; CellTiter-Glo viability); higher = less potent; details: 4-OH-tamoxifen in medium 1 µM; 72 h
Procedure: (§2)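 FIMM FO2B library drugs were plated at 5 concentrations spanning a 10,000-fold range in 384-well plates. Cells were incubated for 72 h at 37 °C and viability was read by CellTiter-Glo, normalised to DMSO (0% inhibition) and 100 µM benzethonium chloride (100% inhibition). IC50 values come from logistic dose-response fits (Breeze pipeline). Tamoxifen-resistant lines and the 'in 1µM tamoxifen' parental arms were tested in medium with 1 µM 4-OH-tamoxifen.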

[13] = tested on: BT-474 Tam2; assay: as above; details: 4-OH-tamoxifen in medium 1 µM; 72 h
Procedure: as §2

[14] = tested on: BT-474; assay: as above; details: 72 h
Procedure: as §2

[15] = tested on: MCF-7 Tam1; assay: as above; details: 4-OH-tamoxifen in medium 1 µM; 72 h
Procedure: as §2

[16] = tested on: MCF-7; assay: as above; details: 72 h
Procedure: as §2

[17] = tested on: T-47D; assay: as above; details: 72 h
Procedure: as §2

[18] = tested on: ZR-75-1 Tam1; assay: as above; details: 4-OH-tamoxifen in medium 1 µM; 72 h
Procedure: as §2

[19] = tested on: ZR-75-1 Tam2; assay: as above; details: 4-OH-tamoxifen in medium 1 µM; 72 h
Procedure: as §2

[20] = tested on: ZR-75-1; assay: as above; details: 72 h
Procedure: as §2

Row | Structure (SMILES) | drug sensitivity score [1] | drug sensitivity score [2] | drug sensitivity score ([3]; 4-OH-tamoxifen in medium 0 µM) | drug sensitivity score ([3]; 4-OH-tamoxifen in medium 1 µM) | drug sensitivity score [4] | drug sensitivity score ([5]; 4-OH-tamoxifen in medium 0 µM) | drug sensitivity score ([5]; 4-OH-tamoxifen in medium 1 µM) | drug sensitivity score [6] | drug sensitivity score [7] | drug sensitivity score ([8]; 4-OH-tamoxifen in medium 0 µM) | drug sensitivity score ([8]; 4-OH-tamoxifen in medium 1 µM) | drug sensitivity score [9] | drug sensitivity score [10] | drug sensitivity score ([11]; 4-OH-tamoxifen in medium 0 µM) | drug sensitivity score ([11]; 4-OH-tamoxifen in medium 1 µM) | relative IC50 [12] | relative IC50 [13] | relative IC50 ([14]; 4-OH-tamoxifen in medium 0 µM) | relative IC50 ([14]; 4-OH-tamoxifen in medium 1 µM) | relative IC50 [15] | relative IC50 ([16]; 4-OH-tamoxifen in medium 0 µM) | relative IC50 ([17]; 4-OH-tamoxifen in medium 0 µM) | relative IC50 ([17]; 4-OH-tamoxifen in medium 1 µM) | relative IC50 [18] | relative IC50 [19] | relative IC50 ([20]; 4-OH-tamoxifen in medium 0 µM) | relative IC50 ([20]; 4-OH-tamoxifen in medium 1 µM) | relative IC50 ([16]; 4-OH-tamoxifen in medium 1 µM)
1 | CC1=C(/C=C/C(C)=C/C=C/C(C)=C/C(=O)O)C(C)(C)CCC1 [Tretinoin] | 0 | 0 | 0 | 0 | 0 | 0 | 0.52 | 0.561 | 0.122 | 0 | 0 | 0 | 0 | 0 | 0 | > 10000 nM | > 10000 nM | > 10000 nM | > 10000 nM | > 10000 nM | > 10000 nM | > 10000 nM | > 10000 nM | > 10000 nM | > 10000 nM | > 10000 nM | > 10000 nM | –
2 | C=CC(=O)N1CCC[C@@H](n2nc(-c3ccc(Oc4ccccc4)cc3)c3c(N)ncnc32)C1 | 31.9 | 29 | 18.1 | 26.2 | 0 | 0 | 2.36 | 2.76 | 0.549 | 0 | 0 | 0 | 0 | 0 | 0 | 2.12 nM | 3.4 nM | 13.4 nM | 5.56 nM | > 1000 nM | > 1000 nM | > 1000 nM | > 1000 nM | > 1000 nM | > 1000 nM | > 1000 nM | > 1000 nM | –
3 | Nc1nc(Cl)nc2c1ncn2[C@H]1C[C@H](O)[C@@H](CO)O1 [Cladribine] | 0 | 0 | 0 | 0 | 0 | 0 | 0 | 0.899 | 0 | 0 | 0 | 0.538 | 1.16 | 0.0944 | 0.126 | > 1000 nM | > 1000 nM | > 1000 nM | > 1000 nM | > 1000 nM | > 1000 nM | > 1000 nM | > 1000 nM | – | – | – | – | > 1000 nM
4 | COc1cc2/c(=N/c3ccc(Br)cc3F)nc[nH]c2cc1OCC1CCN(C)CC1 [Vandetanib  (ZD6474, Zactima)] | 0.381 | 0.605 | 0 | 0 | 0 | 0.65 | 0.193 | 0.009 | 1.6 | 0 | 0 | 0 | 0 | 0 | 0 | – | – | > 1000 nM | > 1000 nM | > 1000 nM | – | > 1000 nM | > 1000 nM | > 1000 nM | > 1000 nM | > 1000 nM | > 1000 nM | –
5 | Cc1cc(C(C)Nc2ccccc2)c2nc(N3CCOCC3)cc(=O)n2c1 (stereo not drawn) [TGX-221] | 1.23 | 1.6 | 0 | 0.562 | 0 | 1.97 | 2.11 | 0.102 | 0.389 | 0 | 0.16 | 9.5 | 14.3 | 13.2 | 11 | – | 4070 nM | > 10000 nM | – | > 10000 nM | – | > 10000 nM | – | 193 nM | 104 nM | 74.3 nM | 74.8 nM | –
6 | CC(C)(C)c1cc(NC(=O)Nc2ccc(-c3cn4c(n3)sc3cc(OCCN5CCOCC5)ccc34)cc2)no1 [Quizartinib (AC220)] | 0 | 0 | 0 | 0 | 0 | 0 | 0 | 0 | 0.279 | 0 | 0 | 0 | 0 | 0 | 0 | > 1000 nM | > 1000 nM | > 1000 nM | > 1000 nM | > 1000 nM | > 1000 nM | – | > 1000 nM | > 1000 nM | > 1000 nM | > 1000 nM | > 1000 nM | > 1000 nM
7 | COc1cc2c(cc1O)CC[C@@H]1[C@@H]2CC[C@]2(C)[C@@H](O)CC[C@@H]12 [2-methoxyestradiol  (Panzem)] | 0.83 | 0.943 | 3.19 | 3.93 | 0 | 3.15 | 0.767 | 0.761 | 1.01 | 0.97 | 0 | 0 | 0 | 1.28 | 0 | – | – | 2500 nM | 2750 nM | > 10000 nM | – | – | > 10000 nM | > 10000 nM | > 10000 nM | 4130 nM | > 10000 nM | –
8 | Cn1c(=O)c(F)c(Nc2ccc(I)cc2F)c2c(=O)n(C[C@@H](O)CO)cnc21 [TAK-733] | 0 | 2.4 | 0 | 2.56 | 0 | 1.63 | 5.38 | 3.14 | 0.474 | 0 | 0 | 0 | 0 | 0 | 0 | – | – | > 1000 nM | – | > 1000 nM | – | > 1000 nM | > 1000 nM | > 1000 nM | > 1000 nM | > 1000 nM | > 1000 nM | –

From the supplement of paper PMC4932681
